{"source": "patent US20050180991A1", "about": "“Hypotensive agent and food” (priority 2004, published 2005)", "key": {"[1]": {"assay": "Body weight of SHR rats during daily oral dosing", "assay_type": "in vivo, rat", "conditions": "n=10, oral once daily, CM6271 300 mg/kg, hydralazine 5 mg/kg", "description": "Figures in Table 1 represent mean±SD (standard deviation)."}, "[2]": {"system": "SHR (spontaneously hypertensive rat)", "conditions": "SHR rats, observed once daily at dosing"}, "[3]": {"system": "SHR (spontaneously hypertensive rat)", "assay": "Pulse rate by the tail cuff method in SHR rats", "assay_type": "in vivo", "conditions": "mean±SD; for Pulse rate (bpm) Before dosing: n=10, baseline in acclimatization period; for Pulse rate (bpm) 2nd dosing week: n=10, oral once daily, CM6271 300 mg/kg, hydralazine 5 mg/kg, 23 to 25 hours after dosing in 2nd dosing week", "experimental": "(§1) For statistical analysis of blood pressure, pulse rate and body weight data, Dunnett test was used to make intergroup comparisons, and the level of significance was less than 5% (p<0.05) and less than 1% (p<0.01).\n(§2) Systolic blood pressure and pulse rate were measured in all animals by the tail cuff method using an automated noninvasive sphygmomanometer (BP-98A, Softron Co., Ltd.) once during the acclimatization period and 23 to 25 hours after dosing in the second dosing week. Figures in Table 2 represent mean±SD."}, "[4]": {"system": "SHR (spontaneously hypertensive rat)", "assay": "Systolic blood pressure by the tail cuff method in SHR rats", "assay_type": "in vivo", "conditions": "mean±SD; for Blood pressure (mmHg) Before dosing: n=10, baseline in acclimatization period; for Blood pressure (mmHg) 2nd dosing week: n=10, oral once daily, CM6271 300 mg/kg, hydralazine 5 mg/kg, 23 to 25 hours after dosing in 2nd dosing week, *p<0.05, **p<0.01 vs. control", "experimental": "as §1, §2"}}, "data": [{"smiles": "NNc1nncc2ccccc12", "note": "[Hydralazine, hydralazine]", "values": [{"measurement": "Body weight (g) Day 15", "setting": "[1]; Day 15, mean±SD", "result": "261.5 ± 13.7", "unit": "g"}, {"measurement": "Body weight (g) Day 22", "setting": "[1]; Day 22, mean±SD", "result": "276.1 ± 12.8", "unit": "g"}, {"measurement": "General observations", "setting": "[2]", "result": "Soft stools were observed in some animals"}, {"measurement": "Pulse rate (bpm) Before dosing", "setting": "[3]", "result": "401.3 ± 19.4", "unit": "bpm"}, {"measurement": "Pulse rate (bpm) Before dosing", "setting": "[3]; listed as hydralazine", "result": 401.3, "unit": "bpm"}, {"measurement": "Pulse rate (bpm) 2nd dosing week", "setting": "[3]", "result": "423.6 ± 31.9", "unit": "bpm"}, {"measurement": "Pulse rate (bpm) 2nd dosing week", "setting": "[3]; listed as hydralazine", "result": 423.6, "unit": "bpm"}, {"measurement": "Blood pressure (mmHg) Before dosing", "setting": "[4]", "result": "164.9 ± 8.8", "unit": "mmHg"}, {"measurement": "Blood pressure (mmHg) Before dosing", "setting": "[4]; listed as hydralazine", "result": 164.9, "unit": "mmHg"}, {"measurement": "Blood pressure (mmHg) 2nd dosing week", "setting": "[4]", "result": "138.4 ± 12.1** mmHg"}, {"measurement": "Blood pressure (mmHg) 2nd dosing week", "setting": "[4]; listed as hydralazine", "result": 138.4, "unit": "mmHg"}]}]}
